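Interpolation was linear, between the two tested concentrations surrounding the appropriate level; five concentrations were tested over 48 hours in 96-well plates. Here, GI50 denotes the concentration required for 50% inhibition of growth. The concentration for full growth arrest is given as TGI.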
How the values were obtained:
Assay in all cases: NCI tumour cell line growth inhibition, 48 h
[1] = tested on: 786-0 renal
[2] = tested on: A498 renal
[3] = tested on: A549 NSCLC
[4] = tested on: ACHN renal
[5] = tested on: BT-549 breast
[6] = tested on: CAKI-1 renal
[7] = tested on: CCRF-CEM leukemia
[8] = tested on: COLO 205 colon
[9] = tested on: DU-145 prostate
[10] = tested on: EKVX NSCLC
[11] = tested on: HCC-2998 colon
[12] = tested on: HCT-116 colon
[13] = tested on: HCT-15 colon
[14] = tested on: HL-60(TB) leukemia
[15] = tested on: HOP-62 NSCLC
[16] = tested on: HOP-92 NSCLC
[17] = tested on: HS 578T breast
[18] = tested on: HT29 colon
[19] = tested on: IGROV1 ovarian
[20] = tested on: K-562 leukemia
[21] = tested on: KM12 colon
[22] = tested on: LOX IMVI melanoma
[23] = tested on: M14 melanoma
[24] = tested on: MALME-3M melanoma
[25] = tested on: MCF7 breast
[26] = tested on: MDA-MB-231 breast
[27] = tested on: MDA-MB-435
[28] = tested on: MOLT-4 leukemia
[29] = tested on: NCI-H226 lung
[30] = tested on: NCI-H23 lung
[31] = tested on: NCI-H460 lung
[32] = tested on: NCI-H522 lung
[33] = tested on: NCI/ADR-RES ovarian
[34] = tested on: OVCAR-3 ovarian
[35] = tested on: OVCAR-4 ovarian
[36] = tested on: OVCAR-5 ovarian
[37] = tested on: OVCAR-8 ovarian
[38] = tested on: PC-3 prostate
[39] = tested on: RPMI-8226 leukemia
[40] = tested on: RXF 393 renal
[41] = tested on: SF-268 CNS
[42] = tested on: SF-295 CNS
[43] = tested on: SF-539 CNS
[44] = tested on: SK-MEL-2 melanoma
[45] = tested on: SK-MEL-28 melanoma
[46] = tested on: SK-MEL-5 melanoma
[47] = tested on: SK-OV-3 ovarian
[48] = tested on: SN12C renal
[49] = tested on: SNB-19 CNS
[50] = tested on: SNB-75 CNS
[51] = tested on: SR leukemia
[52] = tested on: SW-620 colon
[53] = tested on: T-47D breast
[54] = tested on: TK-10 renal
[55] = tested on: U251 CNS
[56] = tested on: UACC-257 melanoma
[57] = tested on: UACC-62 melanoma
[58] = tested on: UO-31 renal

CCOC(=O)c1c(C)nc2ccc(Cl)cc2c1-c1ccccc1
GI50 [1]: 17 µM | TGI [1]: 35.1 µM | GI50 [2]: 15.5 µM | TGI [2]: 33.4 µM | GI50 [3]: 25.6 µM | TGI [3]: > 100 µM | GI50 [4]: 17.1 µM | TGI [4]: 35 µM | GI50 [5]: 22.5 µM | TGI [5]: 57.2 µM | GI50 [6]: 21.1 µM | TGI [6]: 55 µM | GI50 [7]: 18.8 µM | TGI [7]: 48.9 µM | GI50 [8]: 17.9 µM | TGI [8]: 53.4 µM | GI50 [9]: 31.6 µM | TGI [9]: > 100 µM | GI50 [10]: 25.6 µM | TGI [10]: 88.2 µM | GI50 [11]: 19.4 µM | TGI [11]: 46.9 µM | GI50 [12]: 12.3 µM | TGI [12]: 28.8 µM | GI50 [13]: 16.9 µM | TGI [13]: 44.6 µM | GI50 [14]: 14.2 µM | TGI [14]: 41 µM | GI50 [15]: 15 µM | TGI [15]: 31.7 µM | GI50 [16]: 1.52 µM | TGI [16]: 20.8 µM | GI50 [17]: 19.6 µM | TGI [17]: 52.1 µM | GI50 [18]: 16.1 µM | TGI [18]: 75.3 µM | GI50 [19]: 16.6 µM | TGI [19]: 61.1 µM | GI50 [20]: 20.1 µM | TGI [20]: > 100 µM | GI50 [21]: 19.8 µM | TGI [21]: 56.8 µM | GI50 [22]: 17.7 µM | TGI [22]: 37.8 µM | GI50 [23]: 18.7 µM | TGI [23]: 52.3 µM | GI50 [24]: 17.6 µM | TGI [24]: 42.3 µM | GI50 [25]: 24 µM | TGI [25]: 70.4 µM | GI50 [26]: 17.1 µM | TGI [26]: 38.4 µM | GI50 [27]: 23.9 µM | TGI [27]: 68.4 µM | GI50 [28]: 16.3 µM | TGI [28]: 43.4 µM | GI50 [29]: 19.2 µM | TGI [29]: 39.7 µM | GI50 [30]: 28.7 µM | TGI [30]: > 100 µM | GI50 [31]: 20.2 µM | TGI [31]: 45.2 µM | GI50 [32]: 14.2 µM | TGI [32]: 36.6 µM | GI50 [33]: 22.2 µM | TGI [33]: 80.2 µM | GI50 [34]: 19 µM | TGI [34]: 43.1 µM | GI50 [35]: 20.6 µM | TGI [35]: 66.6 µM | GI50 [36]: 19.8 µM | TGI [36]: 44.6 µM | GI50 [37]: 26.7 µM | TGI [37]: > 100 µM | GI50 [38]: 20 µM | TGI [38]: 65.9 µM | GI50 [39]: 15.9 µM | TGI [39]: 40 µM | GI50 [40]: 17.3 µM | TGI [40]: 47.4 µM | GI50 [41]: 19.3 µM | TGI [41]: 44.4 µM | GI50 [42]: 19.4 µM | TGI [42]: 46.8 µM | GI50 [43]: 19.6 µM | TGI [43]: 39.9 µM | GI50 [44]: 15 µM | TGI [44]: 34.1 µM | GI50 [45]: 19.6 µM | TGI [45]: 52.4 µM | GI50 [46]: 14.5 µM | TGI [46]: 29 µM | GI50 [47]: 19.1 µM | TGI [47]: 45.6 µM | GI50 [48]: 16.8 µM | TGI [48]: 32.7 µM | GI50 [49]: 14.4 µM | TGI [49]: 34.9 µM | GI50 [50]: 21.8 µM | TGI [50]: 64.9 µM | GI50 [51]: 18.4 µM | TGI [51]: 48.5 µM | GI50 [52]: 19.2 µM | TGI [52]: 47 µM | GI50 [53]: 12.9 µM | TGI [53]: 47.8 µM | GI50 [54]: 34.4 µM | TGI [54]: > 100 µM | GI50 [55]: 19.1 µM | TGI [55]: 40.6 µM | GI50 [56]: 25.5 µM | TGI [56]: 83.1 µM | GI50 [57]: 10.7 µM | TGI [57]: 26.6 µM | GI50 [58]: 14.8 µM | TGI [58]: 31.1 µM

CN1CCC[C@@H]1CCO[C@](C)(c1ccccc1)c1ccc(Cl)cc1
GI50 [1]: 5.88 µM | TGI [1]: 19.7 µM | GI50 [2]: 10.7 µM | TGI [2]: 23 µM | GI50 [3]: 7.92 µM | TGI [3]: 21.7 µM | GI50 [4]: 6.31 µM | TGI [4]: 19 µM | GI50 [5]: 9.64 µM | TGI [5]: 22.4 µM | GI50 [6]: 7.12 µM | TGI [6]: 21.5 µM | GI50 [8]: 1.75 µM | TGI [8]: 3.56 µM | GI50 [9]: 12.6 µM | TGI [9]: 25.2 µM | GI50 [10]: 10.9 µM | TGI [10]: 25.2 µM | GI50 [11]: 3.41 µM | TGI [11]: 13.7 µM | GI50 [12]: 3.62 µM | TGI [12]: 13.7 µM | GI50 [13]: 4.4 µM | TGI [13]: 16 µM | GI50 [14]: 4.03 µM | TGI [14]: 18 µM | GI50 [15]: 10.1 µM | TGI [15]: 23.1 µM | GI50 [16]: 1.8 µM | TGI [16]: 8.37 µM | GI50 [17]: 12.2 µM | TGI [17]: 36 µM | GI50 [18]: 3.06 µM | TGI [18]: 11.3 µM | GI50 [19]: 4.16 µM | TGI [19]: 18.1 µM | GI50 [21]: 7.04 µM | TGI [21]: 20.2 µM | GI50 [22]: 3.02 µM | TGI [22]: 14.2 µM | GI50 [23]: 1.82 µM | TGI [23]: 3.45 µM | GI50 [24]: 1.79 µM | TGI [24]: 4.85 µM | GI50 [25]: 2.98 µM | TGI [25]: 11.7 µM | GI50 [26]: 2.79 µM | TGI [26]: 13.5 µM | GI50 [27]: 2.46 µM | TGI [27]: 8.19 µM | GI50 [28]: 4.12 µM | TGI [28]: 18.1 µM | GI50 [29]: 10.5 µM | TGI [29]: 25.3 µM | GI50 [30]: 10.5 µM | TGI [30]: 24.3 µM | GI50 [31]: 4.94 µM | TGI [31]: 17.1 µM | GI50 [32]: 4.63 µM | TGI [32]: 17.1 µM | GI50 [33]: 7.55 µM | TGI [33]: 21.7 µM | GI50 [34]: 7.96 µM | TGI [34]: 20.8 µM | GI50 [35]: 8.46 µM | TGI [35]: 22 µM | GI50 [36]: 5.34 µM | TGI [36]: 18.6 µM | GI50 [37]: 10.8 µM | TGI [37]: 24.7 µM | GI50 [38]: 4.58 µM | TGI [38]: 17 µM | GI50 [40]: 3.48 µM | TGI [40]: 13.9 µM | GI50 [41]: 9 µM | TGI [41]: 21.5 µM | GI50 [42]: 2.32 µM | TGI [42]: 6.43 µM | GI50 [43]: 9.94 µM | TGI [43]: 23.7 µM | GI50 [44]: 5 µM | TGI [44]: 16.2 µM | GI50 [45]: 2 µM | TGI [45]: 4.36 µM | GI50 [46]: 1.54 µM | TGI [46]: 2.89 µM | GI50 [47]: 4.46 µM | TGI [47]: 17.8 µM | GI50 [48]: 4.54 µM | TGI [48]: 18.7 µM | GI50 [49]: 8.42 µM | TGI [49]: 22.2 µM | GI50 [50]: 2.29 µM | TGI [50]: 12.7 µM | GI50 [51]: 2.32 µM | TGI [51]: 9.59 µM | GI50 [52]: 5.5 µM | TGI [52]: 18.8 µM | GI50 [53]: 3.29 µM | TGI [53]: 16.4 µM | GI50 [54]: 10.7 µM | TGI [54]: 23.3 µM | GI50 [55]: 3.83 µM | TGI [55]: 15.8 µM | GI50 [56]: 1.9 µM | TGI [56]: 4.17 µM | GI50 [57]: 1.81 µM | TGI [57]: 3.99 µM | GI50 [58]: 2.83 µM | TGI [58]: 16.3 µM

From PubChem BioAssay (NCI)
